Test results: publication PMC11446937, “Bacteria from the Amycolatopsis genus associated with a toxic bird secrete protective secondary metabolites” (Nature Communications, 2024)

Tests used:
P. monteilii DSM1388 = experiment: Disc-diffusion antimicrobial assay, ecologically relevant indicator strains; format: cell-based, Pseudomonas monteilii; conditions: Suppl. Table 16, pure compounds 10 mg/mL in DMSO, 5 µl per disc, control Cip 5 µg/mL (HCl), DMSO control 0, n=1
K. rhizophila DSM11926 = experiment: as above; format: cell-based, Kocuria rhizophila; conditions: Suppl. Table 16, pure compounds 10 mg/mL in DMSO, 5 µl per disc, control Cip 5 µg/mL (HCl), DMSO control 0, n=1
SARS-CoV PLpro = conditions: 200 µM; fluorimetric, 10 min; mean ± standard deviation, n=3
SARS-CoV2 Mpro = conditions: 200 µM; fluorimetric, 10 min; mean ± standard deviation, n=3
cathepsin L = experiment: Fluorimetric protease inhibition assay; format: biochemical; conditions: 200 µM, 10 min, mean ± standard deviation, n=3
S. aureus 134/94 (MRSA) = experiment: Disc-diffusion antimicrobial assay, clinically relevant indicator strains; conditions: Suppl. Table 17, 1 mg/mL in DMSO, 50 µl (50 µg) per disc, Cip 5 µg/mL (H2O/HCl), DMSO solvent control 0, n=3
sortase A (SrtA) = conditions: 200 µM
DENV2 NS2B-NS3 = experiment: Fluorimetric protease inhibition assay; format: biochemical; conditions: 200 µM, 10 min, mean ± standard deviation, n=3
cruzain = experiment: Fluorimetric protease inhibition assay; format: biochemical, Trypanosoma cruzi; conditions: 200 µM, 10 min, mean ± standard deviation, n=3
[1] = system: B. thuringiensis DSM104061; experiment: Disc-diffusion antimicrobial assay, ecologically relevant indicator strains; format: cell-based, Bacillus thuringiensis; conditions: Suppl. Table 16, pure compounds 10 mg/mL in DMSO, 5 µl per disc, control Cip 5 µg/mL (HCl), DMSO control 0, n=1
S. aureus SG511 = experiment: Disc-diffusion antimicrobial assay, clinically relevant indicator strains; conditions: Suppl. Table 17, 1 mg/mL in DMSO, 50 µl (50 µg) per disc, Cip 5 µg/mL (H2O/HCl), DMSO solvent control itself 11P, n=3
E. coli SG458 = experiment: as above; conditions: Suppl. Table 17, 1 mg/mL in DMSO, 50 µl (50 µg) per disc, Cip 5 µg/mL (H2O/HCl), DMSO solvent control itself 12P, n=3
[2] = system: Sporobomyces salmonicolor 549; experiment: as above; format: cell-based; conditions: Suppl. Table 17, 1 mg/mL in DMSO, 50 µl (50 µg) per disc, Amph B 10 µg/mL (DMSO/H2O), DMSO solvent control itself 13P, n=3
Experimental: (§1) Disc-diffusion antimicrobial activity assays against clinically relevant indicator strains.
(§2) Pure compounds (1 mg/mL in DMSO or 50% MeOH) were tested for their antimicrobial activity against a variety of bacterial and fungal indicator strains: B. subtilis 6633 (Bs), S. aureus SG511 (Sa1), E. coli SG458 (Ec), P. aeruginosa K799/61 (Pa), S. aureus 134/94 (MRSA) (Sa2), E. faecalis 1528 (VRSA) (Ef), Mycobacterium vaccae 10670 (Mv), Sporobomyces salmonicolor 549 (Ss), C. albicans C.A. (Ca), and Penicillium notatum JP36 (Pn). On each disc, 50 µl compound solution (50 µg) were applied. Antimicrobial activity was determined by measuring the inhibition zone surrounding the disc in mm (n=3).
(§3) Bs: B. subtilis 663, Sa1: S. aureus SG511, Ec: E. coli SG458, Pa: P. aeruginosa K799/61, Sa2: S. aureus 134/94 (MRSA), Ef: E. faecalis 1528 (VRSA), Mv: M. vaccae 10670, Ss: S. salmonicolor 549, Ca: C. albicans C.A., Pn: P. notatum JP36. P: colonies in the inhibition zone, p: single colonies in the inhibition zone. A: no to low inhibition, n.t.: not tested.
(§4) B. subtilis 663, Sa1: S. aureus SG511, Ec: E. coli SG458, Ca: C. albicans C.A., P: colonies in the inhibition zone, […]

C. albicans C.A. = experiment: as above; format: cell-based; conditions: Amph B 10 µg/mL (DMSO/H2O)
Experimental: as §1, §2, §3, §4

Penicillium notatum JP36 = experiment: as above; format: cell-based; conditions: Suppl. Table 17, 1 mg/mL in DMSO, 50 µl (50 µg) per disc, Amph B 10 µg/mL (DMSO/H2O), DMSO solvent control itself 12P, n=3
Experimental: as §1, §2, §3, §4

B. licheniformis DSM13 = experiment: Disc-diffusion antimicrobial assay, ecologically relevant indicator strains; format: cell-based, Bacillus licheniformis; conditions: Suppl. Table 16, pure compounds 10 mg/mL in DMSO, 5 µl per disc, control Cip 5 µg/mL (HCl), DMSO control 0, n=1
B. subtilis 6633 = experiment: Disc-diffusion antimicrobial assay, clinically relevant indicator strains; conditions: Suppl. Table 17, 1 mg/mL in DMSO, 50 µl (50 µg) per disc, Cip 5 µg/mL (H2O/HCl), DMSO solvent control itself 12P, n=3
cathepsin B = experiment: Fluorimetric protease inhibition assay; format: biochemical; conditions: 200 µM, 10 min, mean ± standard deviation, n=3
urokinase (uPA) = experiment: Fluorimetric protease inhibition assay; format: biochemical; conditions: 200 µM, 10 min, mean ± standard deviation, n=3
C. albicans SC5314 = experiment: Disc-diffusion antimicrobial assay, ecologically relevant indicator strains; format: cell-based, Candida albicans; conditions: Suppl. Table 16, pure compounds 10 mg/mL in DMSO, 5 µl per disc, control Amph B 10 µg/mL (DMSO/H2O), DMSO control 0, n=1
rhodesain = conditions: 200 µM
P. aeruginosa K799/61 = conditions: Suppl. Table 17; disc diffusion; 1 mg/mL in DMSO, 50 µl (50 µg) per disc; Cip 5 µg/mL (H2O/HCl); DMSO solvent control itself 12P; n=3
ZIKV NS2B-NS3 = conditions: 200 µM
[3] = system: Mycobacterium vaccae 10670; experiment: Disc-diffusion antimicrobial assay, clinically relevant indicator strains; conditions: Suppl. Table 17, 1 mg/mL in DMSO, 50 µl (50 µg) per disc, Cip 5 µg/mL (H2O/HCl), DMSO solvent control itself 11P, n=3
E. faecalis 1528 = experiment: as above; conditions: Suppl. Table 17, 1 mg/mL in DMSO, 50 µl (50 µg) per disc, Cip 5 µg/mL (H2O/HCl), DMSO solvent control itself 12p, n=3
[4] = Suppl. Table 17, disc diffusion, 1 mg/mL in DMSO, 50 µl (50 µg) per disc, DMSO solvent control 0, n=3

Row | Compound | inhibition zone, Pm (P. monteilii DSM1388) | inhibition zone, Kr (K. rhizophila DSM11926) | Protease inhibition rate, PLpro (SARS-CoV) (SARS-CoV PLpro) | Protease inhibition rate, Mpro (SARS-CoV2) (SARS-CoV2 Mpro) | Protease inhibition rate, Cathepsin L (cathepsin L) | inhibition zone, Sa2 (S. aureus 134/94 (MRSA)) | Protease inhibition rate, SrtA (sortase A (SrtA)) | Protease inhibition rate, DENV2 (DENV2 NS2B-NS3) | Protease inhibition rate, Cruzain (cruzain) | inhibition zone, Bt [1] | inhibition zone, Sa1 (S. aureus SG511) | inhibition zone, Ec (E. coli SG458) | inhibition zone, Ss [2] | inhibition zone, Ca (C. albicans C.A.; [4]) | inhibition zone, Pn (Penicillium notatum JP36) | inhibition zone, Bl (B. licheniformis DSM13) | inhibition zone, Bs (B. subtilis 6633) | Protease inhibition rate, Cathepsin B (cathepsin B) | Protease inhibition rate, uPA (urokinase (uPA)) | inhibition zone, Ca2 (C. albicans SC5314) | also measured
1 | Pachycephalamide C [Compound 3] | 0 mm | 0 mm | 0 ± 0% | 9.25 ± 7.28% | 62.51 ± 4.09% | 0 mm | 14.00 ± 4.62 | 9.19 ± 3.06% | 63.82 ± 1.43% | 0 mm | 0 mm | 15P | 22p | 0 mm | 13p | 0 mm | 0 mm | 56.16 ± 6.18% | 0 ± 0% | 0 mm | Protease inhibition rate, Rhodesain (rhodesain): 58.33 ± 1.36
2 | Pachycephalamide D [Compound 4] | 0 mm | 0 mm | 2.05 ± 2.29% | 24.32 ± 2.62% | 78.67 ± 2.19% | 0 mm | 28.78 ± 4.59 | 33.81 ± 3.08% | 73.97 ± 1.54% | 0 mm | 0 mm | 13P | 25p | 0 mm | 12p | 0 mm | 0 mm | 73.50 ± 4.05% | 0.56 ± 0.90% | 0 mm | inhibition zone, Pa (P. aeruginosa K799/61): 18P; Protease inhibition rate, ZIKV (ZIKV NS2B-NS3): 35.04 ± 1.21; inhibition zone, Mv [3]: 0 mm; Protease inhibition rate, Rhodesain (rhodesain): 72.76 ± 1.07
3 | C[C@@H]1[C@H](O)[C@@H](C)/C=C/C=C/C=C/C=C/C=C/C=C/C=C/[C@H](O[C@@H]2O[C@H](C)[C@@H](O)[C@H](N)[C@@H]2O)C[C@@H]2O[C@](O)(C[C@@H](O)C[C@@H](O)[C@H](O)CC[C@@H](O)C[C@@H](O)CC(=O)O[C@H]1C)C[C@H](O)[C@H]2C(=O)O [Amph B, Amphotericin B, reference compound] | – | – | – | – | – | – | – | – | – | – | – | – | 17p | 20 mm | 18p | – | – | – | – | 20 mm | inhibition zone, Ca (C. albicans C.A.; Suppl. Table 18, compound mixtures, total conc. 1 mg/mL in 50% MeOH, solvent control 0, n=1): 21 mm
4 | Pachycephalamide A [Compound 1] | 0 mm | 0 mm | 1.01 ± 1.74% | 12.82 ± 8.66% | 61.88 ± 2.85% | 0 mm | 12.86 ± 2.35 | 8.57 ± 3.83% | 64.85 ± 1.50% | 0 mm | 0 mm | 0 mm | 15p | – | 11p | 0 mm | 0 mm | 55.19 ± 2.16% | 8.32 ± 4.90% | 0 mm | inhibition zone, Pa (P. aeruginosa K799/61): 18P; Protease inhibition rate, ZIKV (ZIKV NS2B-NS3): 7.99 ± 3.53; inhibition zone, Mv [3]: 0 mm; Protease inhibition rate, Rhodesain (rhodesain): 55.29 ± 2.15
5 | O=C(O)c1cn(C2CC2)c2cc(N3CCNCC3)c(F)cc2c1=O [Cip, Ciprofloxacin, reference compound] | 33 mm | 22 mm | – | – | – | – | – | – | – | 28 mm | – | – | – | – | – | 35 mm | – | – | – | – | –
6 | Pachycephalamide E [Compound 5] | 0 mm | 7 mm | 0 ± 0% | 14.75 ± 7.06% | 47.31 ± 2.53% | 0 mm | 17.94 ± 1.28 | 19.02 ± 6.12% | 43.80 ± 2.31% | 0 mm | 0 mm | 15P | 19p | 0 mm | 14p | 0 mm | 0 mm | 47.52 ± 9.52% | 0 ± 0% | 0 mm | inhibition zone, Pa (P. aeruginosa K799/61): 17P; inhibition zone, Ef (E. faecalis 1528): 13p; Protease inhibition rate, ZIKV (ZIKV NS2B-NS3): 22.71 ± 1.47; Protease inhibition rate, Rhodesain (rhodesain): 48.22 ± 1.63
7 | Pachycephalamide B [Compound 2] | 0 mm | 0 mm | 14.94 ± 1.31% | 57.34 ± 9.94% | 50.42 ± 1.21% | 0 mm | 61.07 ± 4.93 | 29.25 ± 7.00% | 49.62 ± 3.44% | 0 mm | 0 mm | 15P | 14p | 0 mm | 13p | 0 mm | 0 mm | 54.94 ± 2.96% | 0 ± 0% | 0 mm | inhibition zone, Pa (P. aeruginosa K799/61): 18P; Protease inhibition rate, ZIKV (ZIKV NS2B-NS3): 29.95 ± 3.36; Protease inhibition rate, Rhodesain (rhodesain): 47.71 ± 2.73
